Assay results published in US10550084B2, “Substituted 1-hydroxy-pyridin-2(1H)-ones, and methods of making and using same” (ARBUTUS BIOPHARMA CORPORATION, priority 2017, dated 2020).
pEC50: −log10 of the molar value.

How the values were obtained:
Type in all cases: cell-based
[1] = test system: HA-tagged HBeAg (HBV) in DESHAe82 cells; test: AlphaLisa eAg: HA-HBeAg level in DESHAe82 cell culture (anti-HBV / anti-cccDNA activity); settings: Hepatitis B virus, 216 h, read-out: AlphaLisa_eAg EC50
Experimental: Evaluation of anti-HBV activity of the compounds in in vitro cell culture studies was conducted using a modification of the assay system described in Cai et al., 2012, Antimicrobial Agents Chemotherapy 56(8):4277-88, and PCT/EP/2015/06838. In the DESHAe82 cell culture system, the HA epitope-tagged secreted HBV “e antigen” (HBeAg) and HBV precore RNA are produced only from the cccDNA circular template that is formed after HBV replication in absence of Tetracycline (Tet). The DESHAe82 cell line produces high levels of cccDNA synthesis and HA-HBeAg, and high specific readout signals with low noise.
Two assay systems, a chemiluminescence ELISA (CLIA) and a proximity […] assay (AlphaLISA) were developed and used for high-sensitivity detection of HA-tagged HBeAg. To test the compound, DESHAe82 were plated in 96 well tissue-culture treated microtiter plates in DMEM/F12 medium supplemented with 10% fetal bovine serum+1% penicillin-streptomycin with Tet, and incubated in a humidified incubator at 37° C. and 5% CO2 overnight. Next day, the cells were switched to fresh medium without Tet and treated with a test compound, over a range of concentrations (compound is solubilized in 100% DMSO before dilution in cell culture media, and the final DMSO concentration in the assay was 0.5%), and incubated for a duration of 9 days in a humidified incubator at 37° C. and 5% CO2. Untreated negative control samples (0.5% DMSO only) were included on each plate in multiple wells. On day 9, media was harvested and removed to a fresh plate, and level of HA-HBeAg was determined by CLIA or AlphaLISA. Anti-cccDNA activity of each test compound concentration was calculated as a percentage of HA-HBeAg signal detected in negative control samples versus compound-treated samples, and EC50 value for each compound was defined as the concentration that reduced the HA-HBeAg signal by 50%.

[2] = test system: plus-strand of HBV rcDNA in HepDE19 cells; test: HepDE19 assay with bDNA quantitation of HBV rcDNA, plus-strand probe set; settings: Hepatitis B virus, 168 h, 7 days, top concentration 25 μM, Quantigene 2.0 bDNA, plus-strand (PS) rcDNA, read-out: bDNA_RCDNA_PS EC50
Experimental: (§1) (b) HepDE19 Assay with bDNA Quantitation of HBV rcDNA
(§2) HepDE19 cell culture system is a HepG2 (human hepatocarcinoma) derived cell line that supports HBV DNA replication and cccDNA formation in a tetracycline (Tet)-regulated manner and produces HBV rcDNA and a detectable reporter molecule dependent on the production and maintenance of cccDNA (Guo, et al., 2007, J. Virol. 81:12472-12484). HepDE19 (50,000 cells/well) were plated in 96 well collagen-coated tissue-culture treated microtiter plates in DMEM/F12 medium supplemented with 10% fetal bovine serum, 1% penicillin-streptomycin and 1 μg/mL tetracycline and incubated in a humidified incubator at 37° C. and 5% CO2 overnight. Next day, the cells were switched to fresh medium without tetracycline and incubated for 4 hrs at 37° C. and 5% CO2. The cells were treated with fresh Tet-free medium with compounds at concentrations starting at 25 μM and a serial, ½ log, 8-point, titration series in duplicate. The final DMSO concentration in the assay was 0.5%. The plates were incubated for 7 days in a humidified incubator at 37° C. and 5% CO2. Following a 7 day-incubation, the level of rcDNA present in the inhibitor-treated wells was measured using a Quantigene 2.0 bDNA assay kit (Affymetrix, Santa Clara, Calif.) with HBV specific custom probe set and manufacturer's instructions. In order to differentiate HBV RNaseH inhibitors from other classes of HBV inhibitors (for example, nucleos(t)ide analogs or capsid inhibitors), the assay method was configured by incorporating the quantitation of both the minus-strand and the plus-strand of HBV rcDNA levels using specifically designed HBV probe sets. This is based on the observation that inhibition of RNaseH enzyme activity results in a block of the synthesis of the plus strand synthesis by the viral polymerase that follows the synthesis of the minus-strand of rcDNA (Tavis & Lomonosova, 2015, Antiviral Res. 118:132-138). […] In contrast, treatment with HBV inhibitors such as a nucleos(t)ide analogs or capsid inhibitors reduces the production of both strands of HBV rcDNA in cells. Concurrently, the effect of compounds on cell viability was assessed using replicate plates, plated at a density of 5,000 cells/well and incubated for 4 days, to determine the ATP content as a measure of cell viability using the cell-titer glo reagent (CTG; Promega Corporation, Madison, Wis.) as per manufacturer's instructions. The plates were read using a Victor luminescence plate reader (PerkinElmer Model 1420 Multilabel counter) and the relative luminescence units (RLU) data generated from each well was calculated as % inhibition of the untreated control wells and analyzed using XL-Fit module in Microsoft Excel to determine EC50 and EC90 (bDNA) and CC50 (CTG) values using a 4-parameter curve fitting algorithm.

[3] = test system: HBV rcDNA in HepDE19 cells; test: HepDE19 assay with bDNA quantitation of HBV rcDNA; settings: Hepatitis B virus, 168 h, 7 days, top concentration 25 μM, Quantigene 2.0 bDNA, read-out: bDNA_RCDNA EC50
Experimental: as §1, §2

| Structure (SMILES) | pEC50 [1] | pEC50 [2] | pEC50 [3] |
| --- | --- | --- | --- |
| CC(=NOc1ccc(F)cc1)c1c(C)cc(=O)n(O)c1O (mixture of isomers) [Compound 3, (E/Z)-5-(1-((4-fluorophenoxy)imino)ethyl)-1,6-dihydroxy-4-methylpyridin-2(1H)-one] | 5.93 | 5.13 | 4.65 |
| CC(=NOCc1ccc(C)cc1)c1c(C)cc(=O)n(O)c1O (mixture of isomers) [Compound 5, (E/Z)-1,6-Dihydroxy-4-methyl-5-(1-(((4-methylbenzyl)oxy)imino)ethyl)pyridin-2(1H)-one] | 5.80 | 5.52 | < 4.60 |
| CC(=NOc1ccccc1)c1c(C)cc(=O)n(O)c1O (mixture of isomers) [Compound 2, (E/Z)-1,6-Dihydroxy-4-methyl-5-(1-(phenoxyimino)ethyl)pyridin-2(1H)-one] | 5.89 | 5.36 | 4.77 |
| CC(=NOCc1ccccc1)c1c(C)cc(=O)n(O)c1O (mixture of isomers) [Compound 4, (E/Z)-5-(1-((Benzyloxy)imino)ethyl)-1,6-dihydroxy-4-methylpyridin-2(1H)-one] | 5.65 | 4.87 | < 4.60 |
| CC(=NOCc1ccccc1N)c1c(C)cc(=O)n(O)c1O (mixture of isomers) [Compound 8, (E/Z)-5-(1-(((2-Aminobenzyl)oxy)imino)ethyl)-1,6-dihydroxy-4-methylpyridin-2(1H)-one] | 5.65 | 4.96 | < 4.60 |
| COc1ccc(CON=C(C)c2c(C)cc(=O)n(O)c2O)cc1 (mixture of isomers) [Compound 7, (E/Z)-1,6-Dihydroxy-5-(1-(((4-methoxybenzyl)oxy)imino)ethyl)-4-methylpyridin-2(1H)-one] | 6.46 | 5.15 | < 4.60 |
| CC(=NOCc1ccc(F)cc1)c1c(C)cc(=O)n(O)c1O (mixture of isomers) [Compound 6, (E/Z)-5-(1-(((4-fluorobenzyl)oxy)imino)ethyl)-1,6-dihydroxy-4-methylpyridin-2(1H)-one] | 6.19 | 5.22 | < 4.60 |
| COc1ccccc1CON=C(C)c1c(C)cc(=O)n(O)c1O (mixture of isomers) [Compound 10, (E/Z)-1,6-Dihydroxy-5-(1-(((2-methoxybenzyl)oxy)imino)ethyl)-4-methylpyridin-2(1H)-one] | 6.01 | 5.19 | < 4.60 |
| CC(=NOCc1ccccc1F)c1c(C)cc(=O)n(O)c1O (mixture of isomers) [Compound 9, (E/Z)-5-(1-(((2-Fluorobenzyl)oxy)imino)ethyl)-1,6-dihydroxy-4-methylpyridin-2(1H)-one] | – | < 4.60 | < 4.60 |
